Common to all, as to assay: Protein phosphatase inhibition assay, FDP substrate, FMP fluorescence
Common to all, as to format: biochemical

For one assay, the target named is T1, PTP1B (Homo sapiens, UniProt P18031).
T1 sequence (P18031 1-435): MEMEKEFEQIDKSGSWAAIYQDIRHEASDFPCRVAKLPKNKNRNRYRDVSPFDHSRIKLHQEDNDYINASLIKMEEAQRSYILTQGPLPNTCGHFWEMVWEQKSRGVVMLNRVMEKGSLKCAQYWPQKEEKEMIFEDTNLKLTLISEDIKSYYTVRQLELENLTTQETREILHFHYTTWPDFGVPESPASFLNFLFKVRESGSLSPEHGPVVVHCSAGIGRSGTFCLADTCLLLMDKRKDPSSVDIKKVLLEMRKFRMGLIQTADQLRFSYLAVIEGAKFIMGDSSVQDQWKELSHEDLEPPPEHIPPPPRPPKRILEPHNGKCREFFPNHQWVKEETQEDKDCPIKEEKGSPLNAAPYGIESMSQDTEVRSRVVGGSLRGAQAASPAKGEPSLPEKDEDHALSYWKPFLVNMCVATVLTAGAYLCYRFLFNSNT
The procedure:
(§1) In order to examine the ability of the rhodanine derivatives, that is, Compounds 1˜174, to inhibit protein phosphatases, they were assayed for IC50 values through the following experiments.
(§2) For the experiments, FDP (fluorescein diphosphate) was used as a substrate for genetically recombinant enzymes to measure the fluorescence of FMP (fluorescein monophosphate). […]

Another assay concerns the target PP1. To be noted: genetically recombinant enzyme, fluorescence of FMP. The procedure:
as §1, §2

For another assay, the target named is T2, Cdc25C (Homo sapiens, UniProt P30307).
T2 sequence (P30307 1-473): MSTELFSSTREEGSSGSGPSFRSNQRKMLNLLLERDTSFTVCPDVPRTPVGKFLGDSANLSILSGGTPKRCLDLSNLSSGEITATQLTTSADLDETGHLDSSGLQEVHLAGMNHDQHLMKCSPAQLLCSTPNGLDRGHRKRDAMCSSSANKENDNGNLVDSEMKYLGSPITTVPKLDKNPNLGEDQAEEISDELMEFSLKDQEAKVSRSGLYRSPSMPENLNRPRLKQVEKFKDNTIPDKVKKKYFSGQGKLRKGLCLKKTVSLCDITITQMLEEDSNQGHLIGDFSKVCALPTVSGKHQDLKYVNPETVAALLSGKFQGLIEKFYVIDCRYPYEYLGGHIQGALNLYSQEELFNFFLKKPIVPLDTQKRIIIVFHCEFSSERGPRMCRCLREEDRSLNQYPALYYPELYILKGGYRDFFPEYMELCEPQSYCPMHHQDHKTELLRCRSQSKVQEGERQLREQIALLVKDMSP
The settings on record: genetically recombinant enzyme, fluorescence of FMP. The procedure:
as §1, §2

The next assay concerns the target pp2A. The settings on record: genetically recombinant enzyme, fluorescence of FMP. The procedure:
as §1, §2

The next assay concerns the target T3, CD45 (Homo sapiens, UniProt P08575).
T3 sequence (P08575 26-1306): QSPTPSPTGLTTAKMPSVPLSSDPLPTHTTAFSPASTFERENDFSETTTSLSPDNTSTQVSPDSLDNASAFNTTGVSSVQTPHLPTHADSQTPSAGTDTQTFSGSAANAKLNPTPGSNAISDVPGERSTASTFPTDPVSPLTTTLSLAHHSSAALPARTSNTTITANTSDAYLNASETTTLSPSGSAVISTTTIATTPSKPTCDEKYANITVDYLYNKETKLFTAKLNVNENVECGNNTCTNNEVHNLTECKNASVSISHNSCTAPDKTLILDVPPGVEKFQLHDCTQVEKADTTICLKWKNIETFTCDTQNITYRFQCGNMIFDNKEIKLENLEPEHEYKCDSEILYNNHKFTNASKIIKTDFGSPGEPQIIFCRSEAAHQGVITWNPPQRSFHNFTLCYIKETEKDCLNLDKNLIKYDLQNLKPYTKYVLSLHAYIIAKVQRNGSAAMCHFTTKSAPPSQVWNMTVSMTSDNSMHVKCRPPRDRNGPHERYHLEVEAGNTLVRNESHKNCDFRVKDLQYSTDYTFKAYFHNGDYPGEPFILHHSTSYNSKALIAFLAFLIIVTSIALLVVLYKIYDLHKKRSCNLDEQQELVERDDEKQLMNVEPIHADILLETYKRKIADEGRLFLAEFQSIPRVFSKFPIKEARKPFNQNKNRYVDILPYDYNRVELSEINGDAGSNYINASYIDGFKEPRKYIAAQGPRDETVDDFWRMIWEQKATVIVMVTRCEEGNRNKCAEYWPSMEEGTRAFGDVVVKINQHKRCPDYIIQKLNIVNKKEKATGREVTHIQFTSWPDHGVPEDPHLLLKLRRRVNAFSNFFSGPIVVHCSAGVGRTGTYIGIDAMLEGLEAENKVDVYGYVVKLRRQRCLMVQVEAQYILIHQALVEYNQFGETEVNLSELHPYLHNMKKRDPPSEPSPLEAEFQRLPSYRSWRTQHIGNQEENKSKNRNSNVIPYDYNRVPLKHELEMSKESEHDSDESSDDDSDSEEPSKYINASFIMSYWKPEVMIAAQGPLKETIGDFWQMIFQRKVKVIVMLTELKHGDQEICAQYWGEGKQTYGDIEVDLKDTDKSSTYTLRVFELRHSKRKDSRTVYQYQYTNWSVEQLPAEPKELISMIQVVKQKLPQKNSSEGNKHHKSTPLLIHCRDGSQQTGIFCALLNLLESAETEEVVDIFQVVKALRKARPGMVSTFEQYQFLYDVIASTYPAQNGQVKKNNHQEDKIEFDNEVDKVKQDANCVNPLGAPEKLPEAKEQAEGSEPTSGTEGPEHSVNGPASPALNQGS
The settings on record: genetically recombinant enzyme, fluorescence of FMP. The procedure: as §1, §2

The target of a further assay is VHR (Homo sapiens, UniProt P51452). To be noted: genetically recombinant enzyme, fluorescence of FMP. Here is the method: as §1, §2
VHR, sequence (P51452 whole entry): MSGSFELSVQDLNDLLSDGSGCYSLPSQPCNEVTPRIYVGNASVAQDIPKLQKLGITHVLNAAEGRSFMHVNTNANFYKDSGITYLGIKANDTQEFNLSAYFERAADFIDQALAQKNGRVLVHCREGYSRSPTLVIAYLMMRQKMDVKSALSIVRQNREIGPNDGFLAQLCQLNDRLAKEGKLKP
In the next assay the target is Prl-3 (Homo sapiens, UniProt O75365). To be noted: genetically recombinant enzyme, fluorescence of FMP. The text has this: For the experiments, FDP (fluorescein diphosphate) was used as a substrate for genetically recombinant enzymes to measure the fluorescence of FMP (fluorescein monophosphate).
Prl-3, sequence (O75365 whole entry): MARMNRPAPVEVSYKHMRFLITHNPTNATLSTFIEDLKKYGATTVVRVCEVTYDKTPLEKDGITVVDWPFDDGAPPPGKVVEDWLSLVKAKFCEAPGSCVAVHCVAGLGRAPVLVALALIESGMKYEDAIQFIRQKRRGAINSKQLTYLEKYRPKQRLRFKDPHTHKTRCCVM
The target in another assay is LAR (Homo sapiens, UniProt P10586). To be noted: genetically recombinant enzyme, fluorescence of FMP. The procedure: as §1, §2
LAR, sequence (P10586 30-1907): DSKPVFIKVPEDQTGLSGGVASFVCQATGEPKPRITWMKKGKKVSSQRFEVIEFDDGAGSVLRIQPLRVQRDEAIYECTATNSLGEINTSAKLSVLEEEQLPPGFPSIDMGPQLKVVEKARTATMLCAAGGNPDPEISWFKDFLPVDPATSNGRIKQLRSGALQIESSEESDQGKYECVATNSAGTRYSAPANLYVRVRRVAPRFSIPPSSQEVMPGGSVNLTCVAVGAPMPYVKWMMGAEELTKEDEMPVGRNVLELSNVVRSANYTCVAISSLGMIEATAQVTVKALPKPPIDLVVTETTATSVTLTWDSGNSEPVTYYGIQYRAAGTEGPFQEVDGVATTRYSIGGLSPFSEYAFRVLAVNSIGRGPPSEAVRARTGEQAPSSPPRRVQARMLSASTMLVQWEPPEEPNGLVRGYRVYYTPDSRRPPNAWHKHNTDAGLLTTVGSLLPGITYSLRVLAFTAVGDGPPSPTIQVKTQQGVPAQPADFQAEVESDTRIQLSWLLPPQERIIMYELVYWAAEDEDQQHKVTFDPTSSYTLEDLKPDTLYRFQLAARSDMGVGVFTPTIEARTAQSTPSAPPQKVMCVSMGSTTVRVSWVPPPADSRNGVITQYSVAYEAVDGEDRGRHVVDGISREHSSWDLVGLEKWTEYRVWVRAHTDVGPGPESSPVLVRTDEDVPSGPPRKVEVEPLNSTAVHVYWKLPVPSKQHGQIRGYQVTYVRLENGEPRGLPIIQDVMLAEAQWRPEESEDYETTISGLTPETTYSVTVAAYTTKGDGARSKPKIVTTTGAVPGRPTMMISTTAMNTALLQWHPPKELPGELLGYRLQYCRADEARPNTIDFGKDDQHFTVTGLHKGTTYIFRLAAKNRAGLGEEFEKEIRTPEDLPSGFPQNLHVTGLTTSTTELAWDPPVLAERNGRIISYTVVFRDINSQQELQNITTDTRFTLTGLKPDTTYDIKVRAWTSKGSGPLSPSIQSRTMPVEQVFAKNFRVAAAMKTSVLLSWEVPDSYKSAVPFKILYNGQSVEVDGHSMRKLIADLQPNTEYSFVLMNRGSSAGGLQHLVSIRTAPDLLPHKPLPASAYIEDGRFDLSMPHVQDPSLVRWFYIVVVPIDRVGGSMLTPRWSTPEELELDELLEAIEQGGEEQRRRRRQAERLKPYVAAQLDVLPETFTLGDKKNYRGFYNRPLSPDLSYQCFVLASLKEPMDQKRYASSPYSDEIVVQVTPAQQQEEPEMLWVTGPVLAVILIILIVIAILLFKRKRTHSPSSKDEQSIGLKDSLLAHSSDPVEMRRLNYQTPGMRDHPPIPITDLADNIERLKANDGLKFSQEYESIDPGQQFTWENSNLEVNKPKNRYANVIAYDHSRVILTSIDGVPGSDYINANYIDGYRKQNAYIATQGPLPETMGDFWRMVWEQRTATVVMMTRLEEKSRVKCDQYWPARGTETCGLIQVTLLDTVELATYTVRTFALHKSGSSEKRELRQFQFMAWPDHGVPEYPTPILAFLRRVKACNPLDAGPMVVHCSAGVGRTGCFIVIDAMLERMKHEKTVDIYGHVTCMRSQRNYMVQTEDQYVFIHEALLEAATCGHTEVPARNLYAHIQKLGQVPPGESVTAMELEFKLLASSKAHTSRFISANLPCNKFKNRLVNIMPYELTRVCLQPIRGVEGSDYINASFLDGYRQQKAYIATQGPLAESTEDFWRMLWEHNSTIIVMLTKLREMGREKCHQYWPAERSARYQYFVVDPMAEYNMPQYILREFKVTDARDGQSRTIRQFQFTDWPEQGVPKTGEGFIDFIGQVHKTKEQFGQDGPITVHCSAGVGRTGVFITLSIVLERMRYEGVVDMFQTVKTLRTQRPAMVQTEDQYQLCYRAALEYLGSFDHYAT
The next assay has as its target T4, Cdc25B (Homo sapiens, UniProt P30305).
T4 sequence (P30305 1-580): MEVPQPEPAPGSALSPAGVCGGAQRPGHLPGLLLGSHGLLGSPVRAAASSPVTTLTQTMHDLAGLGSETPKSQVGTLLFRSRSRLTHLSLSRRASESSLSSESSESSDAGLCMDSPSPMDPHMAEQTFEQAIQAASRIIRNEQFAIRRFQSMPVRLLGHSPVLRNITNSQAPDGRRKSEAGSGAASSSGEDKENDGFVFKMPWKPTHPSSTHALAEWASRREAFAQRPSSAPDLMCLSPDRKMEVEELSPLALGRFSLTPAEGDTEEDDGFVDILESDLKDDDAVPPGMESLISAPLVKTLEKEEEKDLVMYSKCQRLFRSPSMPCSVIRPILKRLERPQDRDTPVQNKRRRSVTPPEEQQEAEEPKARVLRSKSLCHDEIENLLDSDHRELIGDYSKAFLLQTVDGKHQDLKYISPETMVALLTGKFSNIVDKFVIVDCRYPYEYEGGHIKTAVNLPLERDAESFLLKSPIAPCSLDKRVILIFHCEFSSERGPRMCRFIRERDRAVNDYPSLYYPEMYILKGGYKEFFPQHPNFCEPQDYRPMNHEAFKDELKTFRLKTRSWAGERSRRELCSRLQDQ
To be noted: genetically recombinant enzyme, fluorescence of FMP. Here is the method: as §1, §2

In a further assay the target is T5, Cdc25A (Homo sapiens, UniProt P30304).
T5 sequence (P30304 1-524): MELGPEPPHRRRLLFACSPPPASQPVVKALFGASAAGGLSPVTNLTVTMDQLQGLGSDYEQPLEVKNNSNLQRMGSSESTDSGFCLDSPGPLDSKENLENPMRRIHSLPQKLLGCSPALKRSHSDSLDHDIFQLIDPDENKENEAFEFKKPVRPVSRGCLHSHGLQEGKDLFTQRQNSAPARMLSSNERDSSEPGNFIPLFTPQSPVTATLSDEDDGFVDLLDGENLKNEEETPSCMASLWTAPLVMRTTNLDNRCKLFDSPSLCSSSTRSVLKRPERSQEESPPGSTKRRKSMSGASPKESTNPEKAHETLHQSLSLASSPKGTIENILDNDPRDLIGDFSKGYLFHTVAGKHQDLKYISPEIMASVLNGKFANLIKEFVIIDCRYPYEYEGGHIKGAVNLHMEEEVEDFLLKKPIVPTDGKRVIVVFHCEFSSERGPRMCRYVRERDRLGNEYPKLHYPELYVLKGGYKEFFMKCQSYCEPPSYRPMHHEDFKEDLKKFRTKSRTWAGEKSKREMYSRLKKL
To be noted: genetically recombinant enzyme, fluorescence of FMP. The procedure:
as §1, §2

For a further assay, the target named is Yop (Yersinia enterocolitica, UniProt P15273). To be noted: genetically recombinant enzyme, fluorescence of FMP. The procedure: as §1, §2
Yop, sequence (P15273 whole entry): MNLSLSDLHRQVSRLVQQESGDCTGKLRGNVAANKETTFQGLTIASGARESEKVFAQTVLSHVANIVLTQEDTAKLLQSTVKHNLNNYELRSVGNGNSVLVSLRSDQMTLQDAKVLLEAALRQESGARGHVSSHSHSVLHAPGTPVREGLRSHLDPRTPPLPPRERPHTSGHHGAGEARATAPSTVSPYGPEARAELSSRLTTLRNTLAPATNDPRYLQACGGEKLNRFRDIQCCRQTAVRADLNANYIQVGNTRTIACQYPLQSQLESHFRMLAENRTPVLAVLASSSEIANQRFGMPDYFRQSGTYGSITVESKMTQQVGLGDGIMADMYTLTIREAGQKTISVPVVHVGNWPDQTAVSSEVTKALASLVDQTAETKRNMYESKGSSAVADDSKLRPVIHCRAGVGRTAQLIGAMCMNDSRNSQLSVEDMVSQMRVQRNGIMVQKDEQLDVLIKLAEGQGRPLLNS
[1] abbreviates: genetically recombinant enzyme, FDP substrate, fluorescence of FMP, read-out: IC50 PTP1B.

SMILES strings stand for the structures. Read-outs that look alike come from different tables or passages of the source. Bounds are passed on as bounds.

The IC50 is the concentration at which inhibition is half-maximal. At PTP1B, `O=C1NC(=S)S/C1=C\c1cc(Br)ccc1OCc1ccccc1` [Compound 1, 5-(2-benzyloxy-5-bromobenzylidene)-2-thioxo-thiazolidin-4-one] had a half-inhibitory concentration (IC50) of over 20 µM.

In the case of `O=C1NC(=S)S/C1=C\c1cc2ccccc2cc1OCc1ccccc1` [Compound 2, 5-(3-benzyloxy-naphthalen-2-ylmethylene)-2-thioxo-thiazolidin-4-one], the IC50 on PP1, at PTP1B (setting [1]) and on Cdc25C was over 20 µM each time.

Take `O=C1NC(=S)S/C1=C\c1cc(Br)ccc1OCCc1ccccc1` [Compound 4, 5-(5-bromo-2-phenethyloxy-benzylidene)-2-thioxo-thiazolidin-4-one]: the IC50 on PP1 is over 20 µM; on PTP1B (setting [1]), 10 µM; on pp2A, over 20 µM.

Regarding `O=C1NC(=S)S/C1=C\c1cc(Br)ccc1OCc1ccc(-c2ccccc2)cc1` [Compound 18, 5-[2-(biphenyl-ylmethoxy)-5-bromo-benzylidene]-2-thioxo-thiazolidin-4-one], the IC50 is 2.1 µM on PTP1B (setting [1]) and over 20 µM at CD45.

As to `O=C1NC(=S)S/C1=C\c1cc(Br)ccc1OCc1cccc(C(F)(F)F)c1` [Compound 19, 5-[5-bromo-2-(3-trifluoromethyl-benzyloxy)-benzylidene]-2-thioxo-thiazolidin-4-one], the IC50 on PTP1B (setting [1]) was 5 µM; on Cdc25C, over 20 µM; at CD45, over 20 µM; at VHR, over 20 µM.

On to `CCN(CC)c1ccc(/C=C2\SC(=S)NC2=O)c(OCc2ccccc2)c1` [Compound 32, 5-(2-benzyloxy-4-diethylamino-benzylidene)-2-thioxo-thiazolidin-4-one], for which the IC50 at Prl-3 was 1.34 µM; at PTP1B (setting [1]), over 20 µM; at Cdc25C, over 20 µM; on LAR, over 20 µM; at VHR, over 20 µM.

Turning to `O=C1NC(=S)S/C1=C\c1cc(Br)ccc1OCCn1c2ccccc2c2ccccc21` [Compound 141, 5-[5-bromo-2-(2-carbazol-9-yl-ethoxy)-benzylidene]-2-thioxo-thiazolidin-4-one], the half-maximal inhibitory concentration (IC50) was 1.6 µM on Prl-3, 2.7 µM at Cdc25B, 47 µM on PTP1B (setting [1]) and over 20 µM at Cdc25A.

For `O=C1NC(=S)S/C1=C\c1cc(Br)ccc1OCCN1c2ccccc2Cc2ccccc21` [Compound 142, 5-2-[2-(9H-acridin-10-yl)-ethoxy]-5-bromo-benzylidene-2-thioxo-thiazolidin-4-one], the IC50 on Prl-3 was 3.6 µM; on Cdc25B, 4.4 µM; at PTP1B (setting [1]), 13 µM; on Cdc25C, over 20 µM.

For the compound `CN(CCOc1ccc(Br)cc1/C=C1\SC(=S)NC1=O)C(=O)OC(C)(C)C` [Compound 157, 2-[4-bromo-2-(4-oxo-2-thioxo-thiazolidin-5-ylidenemethyl)-phenoxy]-ethyl-methyl-carbamic acid t-butyl ester], the IC50 on Prl-3 was 6.2 µM; on PTP1B (setting [1]) it was over 20 µM; at LAR it was over 20 µM; at Yop, over 20 µM.

For the origin of these results see patent publication US8148541B2, “Rhodanine derivatives, a process for the preparation thereof and pharmaceutical composition containing the same” (Korea Research Institute of Bioscience and Biotechnology, priority 2006, dated 2012).
